According to article PMC12546632, “The role of cytochrome bc1 inhibitors in future tuberculosis treatment regimens” (Nature Communications, 2025):
Values after ≈ are worked out from the molar mass of the structure shown. Values joined by “and” are separate entries in the source; they are usually repeats but may differ in a detail not shown here. Identical values can stand only once. Like-named read-outs stand apart in the source and are kept apart here.

What was measured:
[1] = system: WT H37Rv; format: cell-based, Mycobacterium tuberculosis; settings: biological replicates
[2] = system: N1283 clinical isolate; format: cell-based, Mycobacterium tuberculosis; settings: biological replicates
[3] = system: M. tuberculosis ΔcydAB (Parent); test: microbe, parasite or virus in culture; format: cell-based; settings: Mycobacterium tuberculosis
[4] = system: M. tuberculosis HN878; settings: telacebec added to BPaC, after 4 weeks of treatment; cited from earlier work

CCc1nc2ccc(Cl)cn2c1C(=O)NCc1ccc(N2CCC(c3ccc(OC(F)(F)F)cc3)CC2)cc1 [telacebec, reference compound]
CFU counts ([1]; Conc 8 nM): 30000000 CFU and 50000000 CFU
CFU counts ([1]; Conc 32 nM): 19000000 CFU and 32000000 CFU and 49500000 CFU
CFU counts ([1]; Conc 128 nM): 20000000 CFU and 17000000 CFU and 41500000 CFU and 12000000 CFU
CFU counts ([2]; Conc 8 nM): 16000000 CFU and 19000000 CFU and 60000000 CFU and 40000000 CFU
CFU counts ([2]; Conc 32 nM): 130000 CFU and 900000 CFU and 7000000 CFU and 8000000 CFU
CFU counts ([2]; Conc 128 nM): 180000 CFU and 380000 CFU and 120000 CFU and 150000 CFU
MIC50 [3]: 0.01 µM (≈ 5.57 ng/mL)
reduction in lung bacterial burden compared to BPaC alone [4]: 2 log
